Tests used:
[1] = Cytotoxicity assay, B16F10; assay type: cell-based; details: mouse, B16F10 cells (malignant melanoma); B16F10, 48 hours, maximum concentration 100 μM
Protocol: (§1) To measure the cytotoxicity of the compound represented by Chemical Formula 1 (Chemical Formula 1-1), toxicity was measured in mouse preadipocyte 3T3-L1 cell line, human malignant melanoma A375 cell line, mouse malignant melanoma B16F10 cell line, human oral cancer MDA-MB-435 cell line, mouse breast cancer 4T1 cell line, human breast cancer MCF7 cell line, human brain cancer U87MG cell line, human glioblastoma U373MG cell line, human cervical cancer HeLa cell line, mouse embryonic fibroblast (MEF) cell line, human embryonic kidney HEK293T cell line (Korea Cell Line Bank). First, 1×10^4 cells were divided into 200 μl each in a 96-well plate using Dulbecco's Modified Eagle's Medium (DMEM) supplemented with 10% fetal bovine serum (FBS), […] streptomycin, and 50 U/ml penicillin, while maintaining various cells at 37r in an atmosphere of 5% CO2. The cells were treated with the compound of Chemical Formula 1-1 of the present invention at a maximum concentration of 100 μM and cultured for 48 hours under the same culture conditions. After the incubation, the culture media were removed and the cytotoxicity test results were confirmed (Table 2 and FIG. 3 below).

[2] = Cytotoxicity assay, MDA-MB-435; assay type: cell-based; details: human, MDA-MB-435 cells (printed as oral cancer); MDA-MB-435, 48 hours, maximum concentration 100 μM
Protocol: as §1

Cytotoxicity assay, MCF7 = assay type: cell-based; details: human, MCF7 cells (breast cancer); MCF7, 48 hours, maximum concentration 100 μM
Protocol: as §1

Cytotoxicity assay, HeLa = assay type: cell-based; details: human, HeLa cells (cervical cancer), maximum concentration 100 μM
Protocol: as §1

Cytotoxicity assay, MEF = assay type: cell-based; details: mouse, MEF cells (embryonic fibroblasts), maximum concentration 100 μM
Protocol: as §1

C57BL/C6 mice = assay: Blood obesity and liver damage markers in high calorie diet mice; assay type: in vivo, mouse; details: plasma, compared to high calorie control group, FIG. 13
Protocol: Then, after the experiment was completed, the animal blood of each group was collected and centrifuged to separate plasma, and then representative obesity markers in the blood such as total cholesterol (tCHO), high density lipoprotein (HDL), and low density lipoprotein (LDL), and liver damage markers such as glutamic oxaloacetic transaminase (GOT) and glutamic pyruvic acid transaminase (GPT) were analyzed with a blood chemistry analyzer.

[3] = system: osteogenic differentiation-related genes (mCol1a1, mOsteocalcin, mOsterix); assay: RT-PCR of osteogenic differentiation-related genes; assay type: cell-based, mouse; details: Day 7 of differentiation, FIG. 17
Excerpt: In order to confirm the effect of the compound of Chemical Formula 1 according to the present invention on promoting osteogenic differentiation-related genes, the expression levels of genes promoting osteogenesis were confirmed.
To confirm genetic changes during the differentiation process, total RNA was isolated on Day 7 of differentiation using Trizol reagent (Invitrogen, CA, USA) according to the manufacturer's instructions. The cultured cells were washed twice with cold PBS and lysed with 1 ml of Trizol reagent. To the resulting product, 200 μl of chloroform was added and mixed, followed by centrifugation at 4° C. and 12000 rpm for 20 minutes to separate the supernatant. The same amount of isopropanol was added to the separated supernatant, mixed, and centrifuged again at 4° C. and 12000 rpm. The supernatant was removed, and the remaining pellet was washed three times with 70% ethanol to separate RNA. For RT-PCR, the same amount of total RNA (5 μl) was put into the RT-PCR amplification kit and reacted at 45° C. for 60 minutes to prepare complementary DNA (cDNA). RT-PCR was performed on the cDNA by using AccuPower®RT/PCR PreMix (Bioneer, Korea). Briefly, 2 μl each of 75 mM rATP, rUTP, rCTP, rGTP, enzyme mixture, and 10× reaction buffer was added to 8 μl of the cDNA solution prepared above, followed by amplification according to the manufacturer's instructions, and the quantity and quality of the amplified mRNA was evaluated using nanodrops and 1% agarose gel electrophoresis.

## CC(C)CC1NC(=O)C2CCCN2C(=O)C(C(O)C(C)C)NC(=O)CNC(=O)C(C(C)O)NC(=O)C2NC(=O)C(NC(=O)/C=C/c3ccccc3C(O)C(C)O)C(C)OC(=O)C(CC(N)=O)NC(=O)C(NC(=O)C(O)NC1=O)C(O)c1ccc(O)c(c1)Oc1ccc2cc1 (stereo not shown) [Chemical Formula 1-1]
[1]
  IC50 at 48 h: > 100 µM
[2]
  IC50 at 48 h: > 100 µM
Cytotoxicity assay, MCF7
  IC50 at 48 h: > 100 µM
Cytotoxicity assay, HeLa
  IC50 at 48 h: > 100 µM
Cytotoxicity assay, MEF
  IC50 at 48 h: > 100 µM
C57BL/C6 mice
  glutamic oxaloacetic transaminase (GOT): significantly reduced
  glutamic pyruvic acid transaminase (GPT): significantly reduced
  high density lipoprotein (HDL): increased
  low density lipoprotein (LDL): significantly reduced
  total cholesterol (tCHO): significantly reduced
[3]
  mRNA expression level of mCol1a1: increase
  mRNA expression level of mOsteocalcin: increase
  mRNA expression level of mOsterix: increase

Reference: US20240182525A1, “NOVEL BICYCLIC COMPOUND, OPTICAL ISOMER THEREOF OR PHARMACEUTICALLY ACCEPTABLE SALT THEREOF, USE THEREOF, AND PREPARATION METHOD THEREFOR” (KOREARESEARCH INSTITUTE OF BIOSCIENCE AND BIOTECHNOLOGY, priority 2021, published 2024)
